Laboratory results published in ChEMBL document CHEMBL1201862, “PubChem BioAssay data set” (2004).
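Five compound concentrations were applied to cells in 96-well plates for 48 hours; endpoints were derived by simple linear interpolation of the resulting dose-response curve. Here, GI50 denotes the concentration required for 50% inhibition of growth.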 Activity calls are given as the source filed them. Cut-off read from the data, not from the text of the source: active = GI50 up to about 1.1 µM and inactive = higher.

Experiments:
Assay in all cases: NCI tumour cell line growth inhibition, 48 h
HT-29 = tested on: HT-29
Hs-578T = tested on: Hs-578T
CAKI-1 = tested on: CAKI-1
OVCAR-5 = tested on: OVCAR-5
OVCAR-3 = tested on: OVCAR-3
NCI-H226 = tested on: NCI-H226
786-0 = tested on: 786-0
LOX IMVI = tested on: LOX IMVI
RXF 393 = tested on: RXF 393
TK-10 = tested on: TK-10
EKVX = tested on: EKVX
MDA-N = tested on: MDA-N
T47D = tested on: T47D
SK-OV-3 = tested on: SK-OV-3
SF-268 = tested on: SF-268
NCI-H23 = tested on: NCI-H23
UACC-257 = tested on: UACC-257
SNB-75 = tested on: SNB-75
HCT-116 = tested on: HCT-116
SK-MEL-5 = tested on: SK-MEL-5

Measured: GI50

COc1ccc(/C=C2\CCS(=O)(=O)c3ccccc3C2=O)cc1OC
inactive: HT-29 36.7 µM | Hs-578T 20.7 µM | CAKI-1 58.6 µM | OVCAR-5 68.1 µM | OVCAR-3 22.7 µM | NCI-H226 29.1 µM | 786-0 28.1 µM | LOX IMVI 19.1 µM | RXF 393 54.8 µM | TK-10 26.9 µM | EKVX 38.2 µM | MDA-N 45.4 µM | T47D 32.3 µM | SK-OV-3 51.3 µM | SF-268 29.3 µM | NCI-H23 28.8 µM | UACC-257 35.5 µM | SNB-75 24.9 µM | HCT-116 28.1 µM

COc1ccc(C2C(C#N)=C(S)N(C3OC(COC(C)=O)C(OC(C)=O)C(OC(C)=O)C3OC(C)=O)C(c3ccccc3)=C2C(C)=O)cc1 (stereo unspecified)
inactive: HT-29 > 100 µM | Hs-578T 70.8 µM | CAKI-1 > 100 µM | OVCAR-5 > 100 µM | SK-MEL-5 53.7 µM | OVCAR-3 > 100 µM | NCI-H226 > 100 µM | 786-0 > 100 µM | LOX IMVI > 100 µM | RXF 393 78.9 µM | TK-10 > 100 µM | MDA-N 58.5 µM | T47D 17.3 µM | SF-268 > 100 µM | NCI-H23 > 100 µM | UACC-257 > 100 µM | SNB-75 18.7 µM | HCT-116 > 100 µM

O=C(O)C1=NN(c2ccc(S(=O)(=O)O)cc2)C2(C1)C(Cl)C(=O)N2c1nc2ccccc2s1 (stereo unspecified)
inactive: HT-29 17.8 µM | Hs-578T 47.6 µM | CAKI-1 15.4 µM | OVCAR-5 17.1 µM | SK-MEL-5 12.8 µM | OVCAR-3 12.8 µM | NCI-H226 16.5 µM | 786-0 16.1 µM | LOX IMVI 2.99 µM | RXF 393 16.1 µM | TK-10 18 µM | EKVX 16 µM | MDA-N 21.4 µM | T47D 20.5 µM | SK-OV-3 15.6 µM | SF-268 17.9 µM | NCI-H23 14.4 µM | UACC-257 17.2 µM | SNB-75 13.5 µM | HCT-116 16.5 µM

N#C/C(C(=O)CCl)=C1\Nc2ccccc2O1
inactive: HT-29 4.13 µM | Hs-578T 6.01 µM | CAKI-1 3.65 µM | SK-MEL-5 1.72 µM | OVCAR-3 3.77 µM | NCI-H226 2.3 µM | 786-0 3.76 µM | LOX IMVI 1.65 µM | RXF 393 1.85 µM | TK-10 7.01 µM | MDA-N 3.71 µM | T47D 15.6 µM | SK-OV-3 12.1 µM | SF-268 2.67 µM | NCI-H23 3.75 µM | UACC-257 3.07 µM | SNB-75 5.48 µM | HCT-116 3.43 µM

Cc1[nH]c(-c2ccccc2)c(O)c1C(=O)OC12CC3CC(CC(C3)C1)C2
inactive: HT-29 3.99 µM | Hs-578T 10.3 µM | CAKI-1 20.1 µM | OVCAR-5 13.8 µM | SK-MEL-5 14.6 µM | OVCAR-3 14.6 µM | NCI-H226 14.1 µM | 786-0 14 µM | RXF 393 6.73 µM | EKVX 13.8 µM | MDA-N 17.4 µM | T47D 15.8 µM | SK-OV-3 14.7 µM | SF-268 13.9 µM | NCI-H23 16.3 µM | UACC-257 16.5 µM | SNB-75 10.8 µM | HCT-116 16.7 µM

CCOC(C[Se]CC(OCC)OCC)OCC
inactive: HT-29 64.9 µM | Hs-578T 14.9 µM | CAKI-1 59.4 µM | OVCAR-5 96.6 µM | SK-MEL-5 15.7 µM | OVCAR-3 > 100 µM | NCI-H226 21.5 µM | 786-0 > 100 µM | LOX IMVI 22.9 µM | RXF 393 28.4 µM | TK-10 53.6 µM | EKVX > 100 µM | MDA-N 89.7 µM | T47D > 100 µM | SK-OV-3 74.6 µM | NCI-H23 34.2 µM | UACC-257 85.1 µM | SNB-75 13.2 µM | HCT-116 32.7 µM

C[N+](C)(C)CCCSc1nc2ccccc2[nH]1
inactive: HT-29 > 100 µM | Hs-578T > 100 µM | CAKI-1 > 100 µM | OVCAR-5 89.7 µM | SK-MEL-5 > 100 µM | OVCAR-3 > 100 µM | NCI-H226 > 100 µM | 786-0 > 100 µM | LOX IMVI > 100 µM | RXF 393 > 100 µM | TK-10 > 100 µM | EKVX > 100 µM | MDA-N > 100 µM | T47D > 100 µM | SK-OV-3 > 100 µM | SF-268 > 100 µM | NCI-H23 > 100 µM | UACC-257 30.1 µM | HCT-116 > 100 µM

O=c1[nH]nc(Cc2ccccc2)n1/N=C/c1c(O)ccc2ccccc12
inactive: HT-29 28.4 µM | Hs-578T 19.4 µM | CAKI-1 28.2 µM | SK-MEL-5 18.6 µM | OVCAR-3 17.1 µM | NCI-H226 24.5 µM | 786-0 16.7 µM | LOX IMVI 54 µM | RXF 393 22.3 µM | TK-10 33 µM | EKVX 20.7 µM | MDA-N 54.6 µM | T47D 20.2 µM | SF-268 24.6 µM | NCI-H23 27.2 µM | UACC-257 35.3 µM | SNB-75 17.7 µM | HCT-116 20.2 µM

COc1c(O)ccc(C2=Cc3ccc(O)cc3OC2)c1OC
inactive: HT-29 30.4 µM | Hs-578T 19.5 µM | CAKI-1 8.81 µM | OVCAR-5 30.1 µM | SK-MEL-5 16.1 µM | OVCAR-3 14.9 µM | NCI-H226 23.4 µM | 786-0 16.3 µM | LOX IMVI 26.1 µM | RXF 393 18.7 µM | TK-10 55.2 µM | EKVX 15.1 µM | MDA-N 3.68 µM | T47D 25.6 µM | SK-OV-3 24 µM | SF-268 20.2 µM | NCI-H23 22.3 µM | UACC-257 30.3 µM | SNB-75 14.9 µM | HCT-116 24.3 µM

COCN1C(=O)[C@@H]2C[C@@H](O)CN2C(=O)c2ccccc21
inactive: HT-29 > 100 µM | Hs-578T > 100 µM | CAKI-1 > 100 µM | OVCAR-5 > 100 µM | SK-MEL-5 > 100 µM | 786-0 > 100 µM | LOX IMVI > 100 µM | RXF 393 > 100 µM | TK-10 > 100 µM | EKVX > 100 µM | MDA-N > 100 µM | T47D > 100 µM | SK-OV-3 > 100 µM | SF-268 > 100 µM | NCI-H23 > 100 µM | UACC-257 > 100 µM | SNB-75 > 100 µM | HCT-116 > 100 µM

COc1ccc2cc(CNCCCCCCCCNCc3ccc4cc(OC)ccc4c3)ccc2c1
inactive: HT-29 2 µM | Hs-578T 8.77 µM | CAKI-1 6.67 µM | OVCAR-5 6.9 µM | SK-MEL-5 11.7 µM | OVCAR-3 6.61 µM | NCI-H226 14 µM | 786-0 5.36 µM | LOX IMVI 3.94 µM | RXF 393 8.07 µM | TK-10 3.37 µM | EKVX 6.87 µM | MDA-N 7.74 µM | T47D 21.2 µM | SF-268 4.34 µM | NCI-H23 13.8 µM | UACC-257 6.76 µM | SNB-75 3.41 µM | HCT-116 4.42 µM
